Data on 51 compounds can be found in PubChem BioAssay AID1996.

Converted amounts (≈) assume the structure as drawn.

The conditions of the series: buffer; pH 7.4; 200.0 µM.
Broadly, the kinetic solubility is the concentration staying in solution when a stock, usually in DMSO, is diluted into the medium. For the compound `COc1ccc(C(=O)N2CCCc3ccccc32)cc1OC`, the solubility (kinetic) came out at 32.4 µg/mL (≈ 109 µM). Next, `Cc1cccc(OCC(=O)Nc2ccc3c(c2)C(=O)NC3=O)c1`: 1.3 µg/mL (≈ 4.19 µM); `Cn1cnc([N+](=O)[O-])c1SCCO`: greater than 30.5 µg/mL; `CCOc1ccc(N=CNc2ccc(OCC)cc2)cc1`: 33 µg/mL (≈ 116 µM). `COc1ccccc1N1CCN(C(=S)NC(=O)/C=C/c2ccccc2)CC1` had a kinetic solubility of 1.3 µg/mL (≈ 3.41 µM). For `C=CCC(Nc1ccccc1)c1cccc(OC)c1OC` (stereo unspecified) the value was 10.8 µg/mL (≈ 38.1 µM). As for `Cc1cccc(NC(=O)c2cc3ccccc3oc2=O)c1`, the kinetic solubility is less than 0.6 µg/mL. `CC(NC(=O)Cc1ccc([N+](=O)[O-])cc1)c1ccc2c(c1)OCO2` (stereo unspecified): the solubility (kinetic) is 7.9 µg/mL (≈ 24.1 µM). Compound `CCN(CC)C(=O)c1ccc(-c2cccs2)s1` had a kinetic solubility of 32.6 µg/mL (≈ 123 µM). `O=C(/C=C/c1cccc([N+](=O)[O-])c1)OCC(=O)N1CCN(C(=O)c2ccco2)CC1` had a kinetic solubility of 30.9 µg/mL (≈ 74.7 µM). For `O=C(Nc1ccncc1)c1ccc2ncsc2c1` the value was 35.6 µg/mL (≈ 139 µM).

`c1cc2c3c(cccc3c1)NC(c1ccc3c(c1)OCO3)N2` returned a kinetic solubility of 9.5 µg/mL (≈ 32.7 µM).

The compound `CSc1ccccc1NC(=O)COc1ccc2c(c1)OCO2` displayed a solubility (kinetic) of 41.4 µg/mL (≈ 130 µM). Next, `COc1cc(C(=S)N2CCCC2)ccc1OCc1ccc(C)cc1`: less than 0.7 µg/mL. Next, `COc1ccc2nc(NC(=O)Nc3ccccc3OC)sc2c1`: 1.4 µg/mL (≈ 4.25 µM); `O=C(Nc1ccccc1)N1CCCN(c2ccc(C(F)(F)F)cn2)CC1`: 9.7 µg/mL (≈ 26.6 µM). For `Nc1cc(=O)[nH]c(=O)n1CCc1ccccc1` the value was greater than 34.7 µg/mL. `OC(c1ccccc1)c1nc2ccccc2[nH]1` (stereo unspecified) yielded a kinetic solubility greater than 33.6 µg/mL. Regarding `CCOC(=O)/C=C/C(=O)OCC(=O)Nc1cccc(Br)c1`, the solubility (kinetic) worked out at 13.8 µg/mL (≈ 38.7 µM). Compound `CCCN1CN=C(Nc2nc3ccccc3o2)NC1` had a solubility (kinetic) of 18.9 µg/mL (≈ 72.9 µM). In turn, `CC(=O)NCc1ccc(C(=O)O)cc1` gave a kinetic solubility greater than 29 µg/mL. As for `CSc1ccccc1C(=O)N(C)C(c1ccccc1)c1ccccc1`, the kinetic solubility turned out to be 10.6 µg/mL (≈ 30.5 µM).

`COc1ccc(NC(=O)c2ccc(N3CCCC3=O)cc2)cc1Cl` showed a solubility (kinetic) of 2.1 µg/mL (≈ 6.09 µM). Compound `CC1CCCCN1CC(O)COCc1ccccc1.Cl` (stereo unspecified) came in with a solubility (kinetic) greater than 45 µg/mL. On to `Cc1cc(S(=O)(=O)NCc2ccc(N3CCN(C)CC3)cc2)c(C)s1`, for which the kinetic solubility was found to be 15.8 µg/mL (≈ 41.6 µM).

Compound `COC(=O)CCC(=O)NNC(=O)Cc1ccccc1` gave a kinetic solubility greater than 39.6 µg/mL. Regarding `O=C(NC1CCCc2ccccc21)c1c(F)cccc1Cl` (stereo unspecified), the solubility (kinetic) amounted to 8.3 µg/mL (≈ 27.3 µM). Compound `CC(C)(C)NC(=O)C(=O)NC(=O)c1c(F)cccc1Cl` yielded a kinetic solubility of 36.2 µg/mL (≈ 120 µM).

`CC(C)C(C)NC(=O)Cn1cnc2c(oc3ccccc32)c1=O` (stereo unspecified): the solubility (kinetic) was found to be 17.3 µg/mL (≈ 55.2 µM). Turning to `CN(C)S(=O)(=O)c1cccc(NC(=O)COC(=O)[C@H](Cc2ccccc2)NC(=O)c2ccco2)c1`, the kinetic solubility came to 24.2 µg/mL (≈ 48.4 µM). As to `O=C(Nc1cc([N+](=O)[O-])ccc1N1CCCC1)c1cccs1`, the solubility (kinetic) is 4.1 µg/mL (≈ 12.9 µM).

The compound `COC(=O)c1cnc(Nc2cc(C)ccc2OC)c2ccccc12` showed a kinetic solubility of 0.7 µg/mL (≈ 2.17 µM). As to `O=C(Nc1nc2cc3c(cc2s1)OCO3)C1CC1`, the kinetic solubility was less than 0.3 µg/mL. Take `Cc1ccc(NC(=O)CN(C)C(=O)COc2cccc3ccc(C)nc23)cc1`: the solubility (kinetic) is 3.9 µg/mL (≈ 10.3 µM). Compound `COc1ccc(NC(=O)COc2ccc3c(c2)CCC3)cc1` had a solubility (kinetic) of 2.7 µg/mL (≈ 9.08 µM). In turn, `CC(=O)Nc1ccc(N2C(=O)C3C4C=CC(CC4)C3C2=O)cc1` (stereo unspecified) gave a kinetic solubility greater than 46.6 µg/mL. As to `O=C(COC(=O)c1ccc[n+]([O-])c1)Nc1cc([N+](=O)[O-])ccc1Cl`, the kinetic solubility is greater than 52.8 µg/mL. For `O=C(COc1ccc(C(=O)c2ccccc2)cc1)Nc1ncccc1O`, the kinetic solubility is 24.9 µg/mL (≈ 71.5 µM). With `Cc1ccc(CONC(=O)c2cccc(C)c2)cc1`, the kinetic solubility came out at 38.2 µg/mL (≈ 150 µM).

`N#Cc1ccc(OCC(=O)Nc2ccc(S(=O)(=O)N3CCOCC3)cc2)cc1` yielded a kinetic solubility of 5.5 µg/mL (≈ 13.7 µM).

`CCN(CCS(=O)(=O)c1ccc(Cl)cc1)C(=O)Nc1ccc(Cl)cc1` gave a kinetic solubility of 43.2 µg/mL (≈ 108 µM). Regarding `CC1(C)CC(NC(=O)c2c(N)no[n+]2[O-])CC(C)(C)N1`, the solubility (kinetic) is greater than 42.5 µg/mL.

In turn, `Cc1nn(C)c(C)c1NS(=O)(=O)c1ccc(N2CCCC2=O)cc1` yielded a solubility (kinetic) greater than 52.3 µg/mL. Next, `O=C(CNc1cccc(F)c1)N1CCc2ccccc2C1`: 8.4 µg/mL (≈ 29.5 µM). Take `N#Cc1ccc(S(=O)(=O)Nc2ccc3ccccc3n2)cc1`: the kinetic solubility was 27 µg/mL (≈ 87.3 µM). With `O=C(O)CC1(CC(=O)NCc2ccc(-c3cccs3)cc2)CCCCC1`, the kinetic solubility stood at 43.3 µg/mL (≈ 117 µM). Compound `CC1(C)CC2CC(C)(CN2C(=O)COC(=O)c2cccc([N+](=O)[O-])c2)C1` (stereo unspecified) registered a kinetic solubility greater than 54.1 µg/mL. For the compound `CC(C)(C)NC(=O)NC(=O)COC(=O)c1cc[n+]([O-])cc1`, the solubility (kinetic) was greater than 44.3 µg/mL.

Consider `CC(C)c1ccc(S(=O)(=O)c2cnc(=S)[nH]c2N)cc1`, for which the kinetic solubility is 0.9 µg/mL (≈ 2.91 µM). Next, `C=CCn1cc(C=C2C(=O)N(C)C(=O)N(C)C2=O)c2ccccc21`: 0.8 µg/mL (≈ 2.47 µM); `C#CCN1c2ccccc2Sc2cccnc21`: 4.8 µg/mL (≈ 20.1 µM).
